Values quoted from earlier work in US20210338678A1, “BIOACTIVE VITAMIN COMBINATIONS” (BioVit, Inc., priority 2020, published 2021).

Key:
[1] = patients with type 2 diabetes, 16 weeks of treatment
[2] = system: CD8+T lymphocytes and natural killer (NK) cell activity; conditions: vitamin B12-deficient patients
[3] = system: H1N1 influenza vaccine response; conditions: mothers supplemented during pregnancy and postpartum
[4] = system: acute and chronic pain and inflammation; conditions: mice

CN(C)C(=N)N=C(N)N [metformin, Metformin]
homocysteine [1]: modest increase in homocysteine | levels of folate and vitamin B12 [1]: reduces levels of folate and vitamin B12

C/C1=C2/[N-][C@H]([C@H](CC(N)=O)[C@@]2(C)CCC(=O)NC[C@@H](C)OP(=O)([O-])O[C@H]2[C@@H](O)[C@@H](n3cnc4cc(C)c(C)cc43)O[C@@H]2CO)[C@]2(C)N=C(/C(C)=C3N=C(/C=C4N=C1[C@@H](CCC(N)=O)C\4(C)C)[C@@H](CCC(N)=O)[C@]\3(C)CC(N)=O)[C@@H](CCC(N)=O)[C@]2(C)CC(N)=O.[CH3-].[Co+3] [methylcobalamin, Methylcobalamin]
antibody response of the immune system [2]: improves the antibody response of the immune system

Vitamin B12
H1N1 influenza vaccine response [3]: improved H1N1 influenza vaccine response in mothers

cyanocobalamin
control of acute and chronic neuropathic pain [4]: controlling acute and chronic neuropathic pain
